What all share (type): biochemical
The target of assay [1] is T1, JAK3 (Homo sapiens, UniProt P52333).
T1 sequence (P52333 1-1124): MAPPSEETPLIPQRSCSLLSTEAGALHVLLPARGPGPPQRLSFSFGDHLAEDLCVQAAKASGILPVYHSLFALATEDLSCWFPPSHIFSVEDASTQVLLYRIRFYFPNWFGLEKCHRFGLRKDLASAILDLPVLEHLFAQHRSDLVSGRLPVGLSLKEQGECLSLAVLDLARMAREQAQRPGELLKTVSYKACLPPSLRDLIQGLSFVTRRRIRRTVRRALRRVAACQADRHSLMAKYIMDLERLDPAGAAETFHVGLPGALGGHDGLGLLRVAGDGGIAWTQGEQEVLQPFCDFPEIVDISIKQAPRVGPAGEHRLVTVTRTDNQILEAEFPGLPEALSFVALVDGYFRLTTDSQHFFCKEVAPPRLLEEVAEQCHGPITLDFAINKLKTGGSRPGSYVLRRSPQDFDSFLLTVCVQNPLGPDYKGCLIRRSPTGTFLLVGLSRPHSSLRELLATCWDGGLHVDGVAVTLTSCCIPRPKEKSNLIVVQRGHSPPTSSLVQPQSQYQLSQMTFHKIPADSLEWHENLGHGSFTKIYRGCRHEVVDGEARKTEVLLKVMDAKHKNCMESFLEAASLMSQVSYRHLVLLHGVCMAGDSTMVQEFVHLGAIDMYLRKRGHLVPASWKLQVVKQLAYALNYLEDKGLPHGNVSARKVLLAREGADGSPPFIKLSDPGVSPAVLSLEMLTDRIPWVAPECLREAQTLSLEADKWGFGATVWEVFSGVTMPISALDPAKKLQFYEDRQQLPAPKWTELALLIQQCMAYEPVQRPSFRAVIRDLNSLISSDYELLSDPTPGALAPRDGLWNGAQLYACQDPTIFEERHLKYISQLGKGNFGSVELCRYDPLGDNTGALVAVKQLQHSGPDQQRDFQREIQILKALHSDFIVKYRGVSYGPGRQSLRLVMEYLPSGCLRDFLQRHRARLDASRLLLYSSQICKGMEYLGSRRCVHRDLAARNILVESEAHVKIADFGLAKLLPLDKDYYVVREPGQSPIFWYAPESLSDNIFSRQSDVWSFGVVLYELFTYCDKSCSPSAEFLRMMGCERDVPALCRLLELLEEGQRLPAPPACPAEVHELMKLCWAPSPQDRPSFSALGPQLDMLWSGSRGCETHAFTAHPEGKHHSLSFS
Description: Inhibition of a panel of kinases, in vitro HotSpot kinase assay: JAK3. As to conditions: read-out: IC50 JAK3.

Assay [2] concerns the target EGFR (Homo sapiens, UniProt P00533). The experiment in a line: Inhibition of a panel of kinases, in vitro HotSpot kinase assay: EGFR. How it is done: (§1) The degree of inhibition of a panel of kinases is determined using the in vitro HotSpot kinase assay (purified enzymes, ^33P-ATP, an appropriate substrate and 1 μM ATP).
In assay [3] the target is SRC (Homo sapiens, UniProt P12931). Description: Inhibition of a panel of kinases, in vitro HotSpot kinase assay: SRC. The procedure:
as §1

Assay [4] addresses T2, TEC (Homo sapiens, UniProt P42680).
T2 sequence (P42680 1-631): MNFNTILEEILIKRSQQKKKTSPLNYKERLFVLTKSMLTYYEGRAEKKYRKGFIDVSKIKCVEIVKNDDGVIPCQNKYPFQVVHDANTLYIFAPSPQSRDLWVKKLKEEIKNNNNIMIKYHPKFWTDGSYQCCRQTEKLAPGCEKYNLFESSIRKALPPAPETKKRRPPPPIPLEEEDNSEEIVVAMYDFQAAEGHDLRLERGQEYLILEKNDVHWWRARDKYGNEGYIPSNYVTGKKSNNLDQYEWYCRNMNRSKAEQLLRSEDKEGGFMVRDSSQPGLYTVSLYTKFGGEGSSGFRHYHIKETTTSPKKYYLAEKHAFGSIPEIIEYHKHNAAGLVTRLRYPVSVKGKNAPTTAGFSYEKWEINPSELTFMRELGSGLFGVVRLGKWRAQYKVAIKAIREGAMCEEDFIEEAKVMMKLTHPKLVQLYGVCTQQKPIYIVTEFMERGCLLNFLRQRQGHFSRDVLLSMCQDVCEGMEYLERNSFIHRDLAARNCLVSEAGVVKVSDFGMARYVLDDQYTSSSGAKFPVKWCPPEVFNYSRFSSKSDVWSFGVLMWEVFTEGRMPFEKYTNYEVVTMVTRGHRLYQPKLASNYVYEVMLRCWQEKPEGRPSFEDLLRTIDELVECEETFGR
Description: Inhibition of a panel of kinases, in vitro HotSpot kinase assay: TEC. The procedure:
as §1

Where [5] appears, read: Table 13, A compounds, 1 μM ATP.

The values that follow come from patent US20210070748A1, “INHIBITORS OF BRUTONS TYROSINE KINASE” (Pharmacyclics LLC, priority 2015, published 2021).

The term pIC50 denotes −log10 of the IC50, conventionally taken in molar units.

pIC50: −log10 of the molar value. Read-outs that look alike come from different tables or passages of the source. Some results are limits rather than exact numbers.

SRC, sequence (P12931 whole entry): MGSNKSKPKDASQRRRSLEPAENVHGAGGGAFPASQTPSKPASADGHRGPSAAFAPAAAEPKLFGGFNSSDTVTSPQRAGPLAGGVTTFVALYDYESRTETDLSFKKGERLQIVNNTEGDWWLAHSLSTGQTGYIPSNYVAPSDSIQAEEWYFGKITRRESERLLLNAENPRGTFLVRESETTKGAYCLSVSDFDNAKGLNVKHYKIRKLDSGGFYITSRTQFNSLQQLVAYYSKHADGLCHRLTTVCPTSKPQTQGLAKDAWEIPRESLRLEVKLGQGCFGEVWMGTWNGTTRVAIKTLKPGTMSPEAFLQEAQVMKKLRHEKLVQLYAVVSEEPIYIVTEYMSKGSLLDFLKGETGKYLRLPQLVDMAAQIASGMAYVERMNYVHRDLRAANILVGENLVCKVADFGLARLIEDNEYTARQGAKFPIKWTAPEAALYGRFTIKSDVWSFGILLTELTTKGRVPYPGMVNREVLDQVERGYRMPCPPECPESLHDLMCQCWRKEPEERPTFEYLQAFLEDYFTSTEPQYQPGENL
EGFR, sequence (P00533 25-1210): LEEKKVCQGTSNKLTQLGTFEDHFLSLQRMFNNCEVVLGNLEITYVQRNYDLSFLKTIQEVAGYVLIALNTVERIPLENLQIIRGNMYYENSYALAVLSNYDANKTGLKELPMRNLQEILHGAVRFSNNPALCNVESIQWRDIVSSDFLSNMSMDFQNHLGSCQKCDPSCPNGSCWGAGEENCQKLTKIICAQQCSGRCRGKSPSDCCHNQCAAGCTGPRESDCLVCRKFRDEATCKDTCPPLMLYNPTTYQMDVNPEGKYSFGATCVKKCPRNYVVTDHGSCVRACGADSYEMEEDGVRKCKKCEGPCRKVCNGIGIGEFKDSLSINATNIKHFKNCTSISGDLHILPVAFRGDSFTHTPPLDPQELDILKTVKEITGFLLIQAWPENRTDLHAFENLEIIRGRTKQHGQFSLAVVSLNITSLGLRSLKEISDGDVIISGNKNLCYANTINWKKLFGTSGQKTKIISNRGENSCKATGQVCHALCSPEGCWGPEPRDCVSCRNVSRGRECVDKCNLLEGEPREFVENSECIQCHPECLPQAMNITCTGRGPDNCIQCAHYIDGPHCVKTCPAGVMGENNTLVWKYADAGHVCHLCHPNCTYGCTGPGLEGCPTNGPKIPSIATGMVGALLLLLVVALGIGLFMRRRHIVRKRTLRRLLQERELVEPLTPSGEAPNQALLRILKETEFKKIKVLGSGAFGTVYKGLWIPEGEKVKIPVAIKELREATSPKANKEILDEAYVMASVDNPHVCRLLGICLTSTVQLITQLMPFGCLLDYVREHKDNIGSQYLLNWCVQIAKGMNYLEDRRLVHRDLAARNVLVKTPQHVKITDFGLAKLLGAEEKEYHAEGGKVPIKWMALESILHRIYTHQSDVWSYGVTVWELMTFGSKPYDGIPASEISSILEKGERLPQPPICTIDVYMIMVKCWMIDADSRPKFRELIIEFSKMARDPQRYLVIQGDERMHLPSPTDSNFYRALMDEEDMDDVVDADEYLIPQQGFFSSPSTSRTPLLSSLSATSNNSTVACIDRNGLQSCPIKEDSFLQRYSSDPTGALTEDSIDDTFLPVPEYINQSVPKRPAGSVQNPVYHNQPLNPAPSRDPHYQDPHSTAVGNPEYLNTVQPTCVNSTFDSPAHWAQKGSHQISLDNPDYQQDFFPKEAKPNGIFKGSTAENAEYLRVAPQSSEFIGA

Regarding `CN1CCN(Cc2ccc(Nc3nc(N4CCC[C@@H](n5ccc6cc(C7CC7)ccc6c5=O)C4)cnc3C(N)=O)cc2)CC1` [Example A-111, 5-[(3R)-3-(6-cyclopropyl-1-oxo-1,2-dihydroisoquinolin-2-yl)piperidin-1-yl]-3-({4-[(4-methylpiperazin-1-yl)meth-yl]phenyl}amino)pyrazine-2-carboxamide], the pIC50 in assay [1] (setting [5]) was 6.00 to 7.00; in assay [2] (setting [5]), 5.00 to 6.00; in assay [3] (setting [5]), 6.00 to 7.00; in assay [4] (setting [5]), 7.00 to 8.00.
Take `C=CC(=O)N1CC[C@@H](N(C)c2cnc(C(N)=O)c(Nc3cnn(CCOC)c3)n2)C1` [Example E-110, (R)-5-((1-acryloylpyrrolidin-3-yl)(methyl)amino)-3-(1-(2-methoxyethyl)-1H-pyrazol-4-ylamino)pyrazine-2-carboxamide]: the pIC50 in assay [1] (E compounds, Table 17) was more than 8.00; in assay [2] (E compounds, Table 17) it was 6.00 to 7.00; in assay [3] (E compounds, Table 17) it was 6.00 to 7.00; in assay [4] (E compounds, Table 17) it was not below 8.00.
Regarding `C=CC(=O)N1CCC[C@@H](N(C)c2cnc(C(N)=O)c(Nc3ccc(C4CCN(C5CCCC5)CC4)cc3)n2)C1` [Example E-125, (R)-5-((1-acryloylpiperidin-3-yl)(methyl)amino)-3-(4-(1-cyclopentylpiperidin-4-yl)phenylamino)pyrazine-2-carboxamide], the pIC50 is more than 8.00 in assay [1] (E compounds, Table 17); 7.00 to 8.00 in assay [2] (E compounds, Table 17); not below 8.00 in assay [3] (E compounds, Table 17); not below 8.00 in assay [4] (E compounds, Table 17).
In the case of `Cc1cc(Nc2nc(N3CCC[C@@H](NC(=O)N4Cc5ccccc5C4=O)C3)cnc2C(N)=O)sn1` [Example A-183, N-[(3R)-1-{5-carbamoyl-6-[(3-methyl-1,2-thiazol-5-yl)amino]pyrazin-2-yl}piperidin-3-yl]-1-oxo-2,3-dihydro-1H-isoindole-2-carboxamide], the pIC50 was 5.00 to 6.00 in assay [1] (setting [5]), 6.00 to 7.00 in assay [2] (setting [5]), 7.00 to 8.00 in assay [3] (setting [5]) and 7.00 to 8.00 in assay [4] (setting [5]).
As to `C=CC(=O)N1CCC[C@@H](N(C)c2cnc(C(N)=O)c(Nc3ccc(C4(C)CCN(C5CCCC5)CC4)cc3)n2)C1` [Example E-103, (R)-5-((1-acryloylpiperidin-3-yl)(methyl)amino)-3-(4-(1-cyclopentyl-4-methylpiperidin-4-yl)phenylamino)pyrazine-2-carboxamide], the pIC50 in assay [1] (E compounds, Table 17) is more than 8.00; in assay [2] (E compounds, Table 17), not below 8.00; in assay [3] (E compounds, Table 17), not below 8.00; in assay [4] (E compounds, Table 17) it was not below 8.00.
Consider `C[C@@H]1[C@H](NC(=O)c2ccc(C3CC3)cc2)CCCN1c1cnc(C(N)=O)c(Nc2ccc(N3CCN(C4CCCC4)C[C@@H]3C)cc2)n1` [Example E-137, 3-((4-((S)-4-cyclopentyl-2-methylpiperazin-1-yl)phenyl)amino)-5-((2R,3R)-3-(4-cyclopropylbenzamido)-2-methyipiperidin-1-yl)pyrazine-2-carboxamide], for which the pIC50 was 5.00 to 6.00 in assay [1] (E compounds, Table 17); 5.00 to 6.00 in assay [2] (E compounds, Table 17); 7.00 to 8.00 in assay [3] (E compounds, Table 17); 7.00 to 8.00 in assay [4] (E compounds, Table 17).
Consider `C=CC(=O)N1CCC[C@@H](Nc2nnc(C(N)=O)c(Nc3ccc(-c4ncccn4)cc3)n2)C1` [Example E-41, (R)-3-(1-acryloylpiperidin-3-ylamino)-5-(4-(pyrimidin-2-yl)phenylamino)-1,2,4-triazine-6-carboxamide], for which the negative-log IC50 (pIC50) is more than 8.00 in assay [1] (E compounds, Table 17); 7.00 to 8.00 in assay [2] (E compounds, Table 17); 6.00 to 7.00 in assay [3] (E compounds, Table 17); not below 8.00 in assay [4] (E compounds, Table 17).
On the same counts, the results for `C=CC(=O)N[C@@H]1CCCN(c2cnc(C(N)=O)c(Nc3cc(C)ns3)n2)[C@@H]1C` [Example E-97, 5-((2R,3R)-3-acrylamido-2-methylpiperidin-1-yl)-3-(3-methylisothiazol-5-ylamino)pyrazine-2-carboxamide] are more than 8.00, 7.00 to 8.00, not below 8.00 and not below 8.00.
`CC(C)c1ccc(Nc2nc(N3CCC[C@@H](N4CCC[C@@H](Nc5cc(Cl)cc(C(F)(F)F)c5)C4=O)C3)nnc2C(N)=O)cc1` [Example E-128, 3-((3R,3′R)-3-((3-chloro-5-(trifluoromethyl)phenyl)amino)-2-oxo-[1,3′-bipiperidin]-1′-yl)-5-((4-isopropylphenyl)amino)-1,2,4-triazine-6-carboxamide]: the pIC50 was 5.00 to 6.00 in assay [1] (E compounds, Table 17); 7.00 to 8.00 in assay [3] (E compounds, Table 17); 5.00 to 6.00 in assay [4] (E compounds, Table 17).
Consider `C[C@@H]1[C@H](NC(=O)c2ccc(C3CC3)cc2)CCCN1c1cnc(C(N)=O)c(Nc2ccc(OC3CCN(C)C3)cc2)n1` (stereo partly drawn) [Example E-136, 5-((2R,3R)-3-(4-cyclopropylbenzamido)-2-methylpiperidin-1-yl)-3-((4-((1-methylpyrrolidin-3-yl)oxy)phenyl)amino) pyrazine-2-carboxamide], for which the pIC50 is 6.00 to 7.00 in assay [1] (E compounds, Table 17); 6.00 to 7.00 in assay [2] (E compounds, Table 17); 7.00 to 8.00 in assay [3] (E compounds, Table 17); not below 8.00 in assay [4] (E compounds, Table 17).
Turning to `C=CC(=O)N1CCC[C@@H](Nc2nnc(C(N)=O)c(Nc3ccc(C(C)(C)C)cc3)n2)C1` [Example E-24, (R)-3-(1-acryloylpiperidin-3-ylamino)-5-(4-tert-butylphenylamino)-1,2,4-triazine-6-carboxamide], the negative logarithm of the IC50 (pIC50) was more than 8.00 in assay [1] (E compounds, Table 17); not below 8.00 in assay [2] (E compounds, Table 17); not below 8.00 in assay [4] (E compounds, Table 17).
Turning to `C=CC(=O)N1CCC[C@@H](Nc2nnc(C(N)=O)c(Nc3ccc(Cl)cc3)n2)[C@H]1C` [Example E-7, 3-(((2R,3R)-1-acryloyl-2-methylpiperidin-3-yl)amino)-5-((4-chlorophenyl)amino)-1,2,4-triazine-6-carboxamide], the pIC50 in assay [1] (E compounds, Table 17) is more than 8.00; in assay [4] (E compounds, Table 17), not below 8.00.
For `C=CC(=O)N[C@@H]1CCCN(c2nnc(C(N)=O)c(Nc3ccc(Cl)cc3)n2)[C@@H]1C` [Example E-5, 3-((2R,3R)-3-acrylamido-2-methylpiperidin-1-yl)-5-((4-chlorophenyl)amino)-1,2,4-triazine-6-carboxamide], in that order: more than 8.00 and not below 8.00.
As to `C=CC(=O)N[C@@H]1CCCN(c2nnc(C(N)=O)c(Nc3ccc(C4(C)CCN(C5CC5)CC4)cc3)n2)[C@@H]1C` [Example E-2, 3-((2R,3R)-3-acrylamido-2-methylpiperidin-1-yl)-5-((4-(1-cyclopropyl-4-methylpiperidin-4-yl)phenyl)amino)-1,2,4-triazine-6-carboxamide], the pIC50 in assay [1] (E compounds, Table 17) was 7.00 to 8.00; in assay [4] (E compounds, Table 17), not below 8.00.
For `C=CC(=O)N1CCC[C@@H](Nc2nnc(C(N)=O)c(Nc3ccc(C4(C)CCN(C5CC5)CC4)cc3)n2)[C@H]1C` [Example E-127, 3-(((2R,3R)-1-acryloyl-2-methylpiperidin-3-yl)amino)-5-((4-(1-cyclopropyl-4-methylpiperidin-4-yl)phenyl)amino)-1,2,4-triazine-6-carboxamide], the pIC50 in assay [1] (E compounds, Table 17) was more than 8.00; in assay [3] (E compounds, Table 17), not below 8.00; in assay [4] (E compounds, Table 17) it was not below 8.00.
`C=CC(=O)N1CCC[C@@H](N(C)c2cnc(C(N)=O)c(Nc3ccc(C(C)C)cc3)n2)C1` [Example E-102, (R)-5-((1-acryloylpiperidin-3-yl)(methyl)amino)-3-(4-isopropylphenylamino) pyrazine-2-carboxamide]: the pIC50 is 7.00 to 8.00 in assay [1] (E compounds, Table 17); 6.00 to 7.00 in assay [3] (E compounds, Table 17); not below 8.00 in assay [4] (E compounds, Table 17).
